From patent US10045983B2, “Heteroaryl pyridone and aza-pyrodine compounds” (Genentech, Inc., priority 2011, dated 2018) come the findings set out here.

A short description of the assay: CD69 Whole Blood Assay (CD69 Hu Blood FACS). The assay is classed as cell-based, human. The conditions noted are these: Lymphocyte; human whole blood, anti-IgM activated B lymphocytes, FACS; IC70; Table 1; read-out: CD69 Hu Blood FACS IC70. The text has this:
A CD69 Whole Blood Assay can be conducted on Formula I compounds to determine the ability of compounds to inhibit the production of CD69 by B lymphocytes in human whole blood activated by crosslinking surface IgM with goat F(ab′)2 anti-human IgM (Example 907). CD69 is a type II C-type lectin involved in lymphocyte migration and cytokine secretion. CD69 expression represents one of the earliest available indicators of leukocyte activation and its rapid induction occurs through transcriptional activation (Vazquez et al (2009) Jour. of Immunology Published Oct. 19, 2009, doi:10.4049/jimmunol.0900839). Concentration-dependent inhibition of antigen receptor stimulation by selective Btk inhibitors induces cell surface expression of the lymphocyte activation marker CD69 (Honigberg et al (2010) Proc. Natl. Acad. Sci. 107(29):13075-13080). Thus, CD69 inhibition by selective Btk inhibitors may be correlated with therapeutic efficacy of certain B-cell disorders.
As a reminder, the IC70 is the point of the concentration-response curve where the effect stands at 70%. For `CN1CCN(C)[C@H](c2ccc(Nc3nc(-c4ccnc(N5CCn6c(cc7c6CCCC7)C5=O)c4CO)cn(C)c3=O)cc2)C1=O` [Example 114, (R)-2-(4-(6-(4-(1,4-dimethyl-3-oxopiperazin-2-yl)phenylamino)-4-methyl-5-oxo-4,5-dihydropyrazin-2-yl)-3-(hydroxymethyl)pyridin-2-yl)-3,4,6,7,8,9-hexahydropyrazino[1,2-a]indol-1(2H)-one], the IC70 was 80.2 nM.
For `Cc1cc(Nc2cc(-c3ccnc(N4CCn5c(cc6c5CCCC6)C4=O)c3CO)cn(C)c2=O)n[nH]1` [Example 115, 2-(3-(Hydroxymethyl)-4-(1-methyl-5-(5-methyl-1H-pyrazol-3-ylamino)-6-oxo-1,6-dihydropyridin-3-yl)pyridin-2-yl)-3,4,6,7,8,9-hexahydropyrazino[1,2-a]indol-1(2H)-one], the 70% effect concentration (IC70) was 286 nM.
Take `Cn1cc(-c2cncc(-n3ncc4c5c(sc4c3=O)CCCC5)c2CO)cc(Nc2ccc(N3CCN(C4COC4)CC3)cn2)c1=O` [Example 116, 4-Hydroxymethyl-3-[1-methyl-5-({5-[4-(oxetan-3-yl)piperazin-1-yl]pyridine-2-yl}amino)-6-oxo-1,6-dihydropyridin-3-yl]-5-{6-oxo-8-thia-4,5-diazatricyclo[7.4.0.0^2,7]trideca-1(9),2(7),3-trien-5-yl}pyridine]: the IC70 amounted to 377 nM.
As to `Cn1cc(-c2ccnc(N3CCn4c(cc5c4CCCC5)C3=O)c2CO)cc(Nc2ccc(S(C)(=O)=O)cn2)c1=O` [Example 117, 2-(3-(hydroxymethyl)-4-(1-methyl-5-(5-(methylsulfonyl)pyridin-2-ylamino)-6-oxo-1,6-dihydropyridin-3-yl)pyridin-2-yl)-3,4,6,7,8,9-hexahydro-pyrazino[1,2-a]indol-1(2H)-one], the IC70 came out at 396 nM.
Consider `Cn1cc(-c2ccnc(N3CCn4c(cc5c4CCCC5)C3=O)c2CO)cc(Nc2cc(C3CC3)[nH]n2)c1=O` [Example 118, 2-(4-(5-(5-Cyclopropyl-1H-pyrazol-3-ylamino)-1-methyl-6-oxo-1,6-dihydropyridin-3-yl)-3-(hydroxymethyl)pyridin-2-yl)-3,4,6,7,8,9-hexahydropyrazino[1,2-a]indol-1(2H)-one], for which the IC70 was 608 nM.
Take `C[C@H]1CN(C2COC2)CCN1c1ccc(Nc2cc(-c3ccnc(N4CCn5c(cc6c5CCCC6)C4=O)c3CO)cn(C)c2=O)nc1` [Example 119, (S)-2-(3-(Hydroxymethyl)-4-(1-methyl-5-(5-(2-methyl-4-(oxetan-3-yl)piperazin-1-yl)pyridin-2-ylamino)-6-oxo-1,6-dihydropyridin-3-yl)pyridin-2-yl)-3,4,6,7,8,9-hexahydropyrazino[1,2-a]indol-1(2H)-one]: the IC70 came out at 35.6 nM.
The figure for `Cn1cc(-c2ccnc(N3CCn4c(cc5c4CCCC5)C3=O)c2CO)cc(Nc2ccc(N3CCN(CC(C)(C)O)CC3)cn2)c1=O` [Example 120, 2-(4-(5-(5-(4-(2-Hydroxy-2-methylpropyl)piperazin-1-yl)pyridin-2-ylamino)-1-methyl-6-oxo-1,6-dihydropyridin-3-yl)-3-(hydroxymethyl)pyridin-2-yl)-3,4,6,7,8,9-hexahydropyrazino[1,2-a]indol-1(2H)-one] is 283 nM.
As to `Cn1cc(-c2ccnc(-n3ccn4c5c(cc4c3=O)CCCC5)c2CO)cc(Nc2ccc(N3CCN(C4COC4)CC3)cn2)c1=O` [Example 121, 2-(3-(hydroxymethyl)-4-(1-methyl-5-(5-(4-(oxetan-3-yl)piperazin-1-yl)pyridine-2-ylamino)-6-oxo-1,6-dihydropyridin-3-yl)pyridin-2-yl)-6,7,8,9-tetrahydropyrazino[1,2-a]indol-1(2H)-one], the IC70 was found to be 32.3 nM.
In the case of `C[C@@H]1CN(c2ccc(Nc3cc(-c4ccnc(N5CCn6c(cc7c6CCCC7)C5=O)c4CO)cn(C)c3=O)nc2)[C@@H](C)CN1C1COC1` [Example 122, 2-(4-(5-(5-((2S,5R)-2,5-Dimethyl-4-(oxetan-3-yl)piperazin-1-yl)pyridin-2-ylamino)-1-methyl-6-oxo-1,6-dihydropyridin-3-yl)-3-(hydroxymethyl)pyridin-2-yl)-3,4,6,7,8,9-hexahydropyrazino[1,2-a]indol-1(2H)-one], the IC70 was 12.7 nM.
With `Cn1cc(-c2ccnc(N3CCn4c(cc5c4CCCC5)C3=O)c2CO)cc(Nc2ccc(N3CCN(CCO)CC3)cn2)c1=O` [Example 123, 2-(4-(5-(5-(4-(2-Hydroxyethyl)piperazin-1-yl)pyridin-2-ylamino)-1-methyl-6-oxo-1,6-dihydropyridin-3-yl)-3-(hydroxymethyl)pyridin-2-yl)-3,4,6,7,8,9-hexahydro-pyrazino[1,2-a]indol-1(2H)-one], the IC70 came to 33.1 nM.
Regarding `Cn1cc(-c2ccnc(-n3ncc4c5c(sc4c3=O)CCCC5)c2CO)cc(Nc2ccc(N3CCN(C4COC4)CC3)cn2)c1=O` [Example 124, 3-Hydroxymethyl-4-[1-methyl-5-(5-(4-(oxetan-3-yl)piperazin-1-yl)pyridine-2-ylamino)-6-oxo-1,6-dihydropyridin-3-yl]-2-{6-oxo-8-thia-4,5-diazatricyclo[7.4.0.0^2,7]trideca-1(9),2(7),3-trien-5-yl}pyridine], the IC70 was 36.2 nM.
The same measure for `Cn1cc(-c2ccnc(N3CCn4c(cc5c4CCCC5)C3=O)c2CO)cc(Nc2cc3n(n2)CCN(C2COC2)C3)c1=O` [Example 125, 2-(3-(Hydroxymethyl)-4-(1-methyl-5-(5-(oxetan-3-yl)-4,5,6,7-tetrahydropyrazolo[1,5-a]pyrazin-2-ylamino)-6-oxo-1,6-dihydropyridin-3-yl)pyridin-2-yl)-3,4,6,7,8,9-hexahydropyrazino[1,2-a]indol-1(2H)-one]: 87.3 nM; for `Cn1cc(-c2cncc(-n3ccn4c5c(cc4c3=O)CCCC5)c2CO)cc(Nc2ccc(N3CCN(C4COC4)CC3)cn2)c1=O` [Example 126, 2-(4-(Hydroxymethyl)-5-(1-methyl-5-(5-(4-(oxetan-3-yl)piperazin-1-yl)pyridin-2-ylamino)-6-oxo-1,6-dihydropyridin-3-yl)pyridin-3-yl)-6,7,8,9-tetrahydropyrazino[1,2-a]indol-1(2H)-one]: 138 nM.
`Cn1cc(-c2ccnc(N3CCn4c(cc5c4CCCC5)C3=O)c2CO)cc(Nc2ccc(N3CCNCC3)cn2)c1=O` [Example 127, 2-(3-(Hydroxymethyl)-4-(1-methyl-6-oxo-5-(5-(piperazin-1-yl)pyridin-2-ylamino)-1,6-dihydropyridin-3-yl)pyridin-2-yl)-3,4,6,7,8,9-hexahydropyrazino[1,2-a]indol-1(2H)-one]: the IC70 amounted to 141 nM.
Consider `Cn1cc(-c2ccnc(N3CCn4c(cc5c4CCCC5)C3=O)c2CO)cc(Nc2cc3n(n2)CCN(C2CC2)C3)c1=O` [Example 128, 2-(4-(5-(5-Cyclopropyl-4,5,6,7-tetrahydropyrazolo[1,5-a]pyrazin-2-ylamino)-1-methyl-6-oxo-1,6-dihydropyridin-3-yl)-3-(hydroxymethyl)pyridin-2-yl)-3,4,6,7,8,9-hexahydropyrazino[1,2-a]indol-1(2H)-one], for which the IC70 was 91.8 nM.
Turning to `Cn1cc(-c2ccnc(N3CCn4c(cc5c4CCCC5)C3=O)c2CO)cc(Nc2cc3n(n2)CCOC3)c1=O` [Example 129, 2-(4-(5-(6,7-Dihydro-4H-pyrazolo[5,1-c][1,4]oxazin-2-ylamino)-1-methyl-6-oxo-1,6-dihydropyridin-3-yl)-3-(hydroxymethyl)pyridin-2-yl)-3,4,6,7,8,9-hexahydropyrazino[1,2-a]indol-1(2H)-one], the 70% effect concentration (IC70) is 91.7 nM.
